Measured values reported in PubChem BioAssay (NCI).
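Grown in 96-well plates, cells were treated for 48 hours with each compound at five concentrations. Insufficient inhibition: endpoint recorded as highest concentration tested. At the GI50, growth is halved. At the TGI there is no net growth.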

Assays:
Assay in all cases: growth of human tumour cells (NCI), 48 h
SNB-75 CNS = system: SNB-75 CNS
NCI-H23 lung = system: NCI-H23 lung
RPMI-8226 leukemia = system: RPMI-8226 leukemia
MALME-3M melanoma = system: MALME-3M melanoma
COLO 205 colon = system: COLO 205 colon
EKVX NSCLC = system: EKVX NSCLC
SN12C renal = system: SN12C renal
MDA-MB-231 breast = system: MDA-MB-231 breast
PC-3 prostate = system: PC-3 prostate
HS 578T breast = system: HS 578T breast

Row | SMILES | GI50 (SNB-75 CNS) [µM] | TGI (SNB-75 CNS) [µM] | GI50 (NCI-H23 lung) [µM] | TGI (NCI-H23 lung) [µM] | GI50 (RPMI-8226 leukemia) [µM] | TGI (RPMI-8226 leukemia) [µM] | GI50 (MALME-3M melanoma) [µM] | TGI (MALME-3M melanoma) [µM] | GI50 (COLO 205 colon) [µM] | TGI (COLO 205 colon) [µM] | GI50 (EKVX NSCLC) [µM] | TGI (EKVX NSCLC) [µM] | GI50 (SN12C renal) [µM] | TGI (SN12C renal) [µM] | GI50 (MDA-MB-231 breast) [µM] | TGI (MDA-MB-231 breast) [µM] | GI50 (PC-3 prostate) [µM] | TGI (PC-3 prostate) [µM] | GI50 (HS 578T breast) [µM] | TGI (HS 578T breast) [µM]
1 | N.N.N.N.N.O=[N+]([O-])[O-].[Co+3].[O-][Cl+3]([O-])([O-])[O-] | 29.6 | > 100 | > 100 | > 100 | > 100 | > 100 | > 100 | > 100 | > 100 | > 100 | > 100 | > 100 | > 100 | > 100 | – | – | – | – | – | –
2 | Cc1cc(N(CCC#N)CCC#N)ccc1N=Nc1ccc(Br)cc1 | – | – | – | > 51.3 | – | > 100 | – | > 100 | – | > 100 | – | > 74.4 | – | > 54.8 | – | – | – | – | – | –
3 | COc1ccc(/C(Cl)=C/c2cc(OC)ccc2OC)cc1 | – | > 100 | – | > 100 | – | > 100 | – | > 100 | – | > 100 | – | > 100 | – | > 100 | – | – | – | – | – | –
4 | CC(=O)OCC(=O)[C@@]12OC(C)(C)O[C@@H]1C[C@H]1[C@@H]3CC(C=O)=C4C=C(OCCCl)CC[C@]4(C)[C@@]3(F)[C@@H](O)C[C@@]12C | – | – | – | 42.2 | – | > 100 | – | 70.3 | – | 34.9 | – | > 100 | – | > 100 | – | – | – | – | – | –
5 | CC(=O)O[C@]1(C)OC(=O)[C@@H](CC(C)C)N1[N+](=O)[O-] | – | > 100 | – | > 100 | – | > 100 | – | > 100 | – | > 100 | – | > 100 | – | > 100 | – | – | – | – | – | –
6 | CC(C)(C)C(=CS(=O)/N=C/c1ccccc1)C(C)(C)C (configuration not stated) | – | 63.2 | – | > 100 | – | 46.3 | – | 75.9 | – | > 100 | – | > 100 | – | 51.7 | – | – | – | – | – | –
7 | C1=C2CCCC3=Cc4ccccc4OC23Oc2ccccc21 | 1.64 | 5.84 | 6.2 | > 100 | 3.38 | 15 | 7.17 | > 100 | 2.24 | 5.04 | 5.49 | > 100 | 4.42 | > 100 | 4.23 | 45.5 | 4 | > 100 | – | –
8 | COc1ccc(-c2nc(-c3nc4ccc(F)cc4[nH]3)c3ccccn23)cc1 | 3.4 | 12.4 | 18.7 | > 100 | 2.86 | > 100 | 5.32 | 27.1 | 78.1 | > 100 | – | – | 13.3 | > 100 | 4.34 | 30.4 | 6.14 | 46.9 | 8.54 | > 100
9 | CCOC(=O)N1CCc2cc(OC)c(OC)cc2/C1=C\c1ccc(OC)c(OC)c1 | – | 79.3 | – | > 100 | – | > 100 | – | 57.1 | – | 59.9 | – | 89.2 | – | > 100 | – | – | – | – | – | –
10 | C=CCO/N=C(\OC(=O)c1ccc([N+](=O)[O-])cc1)c1ccccc1 | – | > 100 | – | > 100 | – | > 100 | – | > 100 | – | > 100 | – | > 100 | – | > 100 | – | – | – | – | – | –
11 | Cc1nn2c(/C=C3/C(=O)Nc4cc(Cl)ccc43)c(-c3ccccc3)nc2s1 | 1.6 | 8.44 | 3.68 | > 100 | – | – | 1.89 | 3.91 | 74.4 | > 100 | – | – | 2.84 | 11.1 | 1.99 | 5.62 | 13.8 | > 100 | 3.52 | > 100
12 | CC(=O)[O-].[Mn+3].[O-]c1ccccc1C=NCCNCCN=Cc1ccccc1[O-] | > 100 | > 100 | > 100 | > 100 | – | – | 58.1 | > 100 | – | – | – | – | > 100 | > 100 | – | – | – | – | – | –
13 | CSCCCNC(=O)c1ccc2c(c1)/C(=C/c1[nH]c(C)cc1C)C(=O)N2 | – | – | 1.59 | > 100 | 1.68 | > 100 | 0.597 | > 100 | 0.943 | > 100 | – | – | 0.571 | > 100 | 2.87 | > 100 | 0.647 | > 100 | 0.853 | > 100
14 | O=C1/C(=C/c2ccccc2)CN(C(=O)CCN2CCCC2)C/C1=C\c1ccccc1 | – | 13.5 | – | 4.35 | – | 2.46 | – | 11.4 | – | 3.25 | – | 7.15 | – | 3.16 | – | 3.78 | – | 2.42 | – | –
15 | COc1ccc(C(=O)C(CC2C(=O)NC(=O)NC2=O)c2ccc(OC)cc2)cc1 (configuration not stated) | – | > 100 | – | > 100 | – | – | – | > 100 | – | > 100 | – | > 100 | – | > 100 | – | – | – | – | – | –
